This note sets out measurements from the OligoGym collection.

HELM strings list units from the 5' end as sugar, base in round brackets, then linkage (d deoxyribose, r ribose, m 2'-O-methyl, p phosphodiester). Strings are as the collection lists them; they lack the last nucleoside at the 3' end of the tested compound. [moe] = 2'-O-(2-methoxyethyl) (MOE); [sp] = phosphorothioate linkage; [m5C] = 5-methylcytosine

This data set concerns the target GFAP. The data set is described as follows: mouse, dose not given. Conditions: ASO.
“RNA1{[moe](G)[sp].[moe](G)p.[moe](T)p.[moe](T)p.[moe](G)[sp].d(G)[sp].d(T)[sp].d(T)[sp].d(T)[sp].d([m5C])[sp].d(A)[sp].d(T)[sp].d([m5C])[sp].d([m5C])[sp].d(T)[sp].[moe](G)p.[moe](G)p.[moe](A)[sp].[moe](G)}$$$$ (last 3' nucleoside missing)” showed a 3 h FOB score of 3 score 0-7.

“RNA1{[moe](G)[sp].[moe](G)p.[moe](T)p.[moe]([m5C])p.[moe]([m5C])[sp].d(T)[sp].d(A)[sp].d(A)[sp].d(A)[sp].d(T)[sp].d(A)[sp].d(T)[sp].d(T)[sp].d([m5C])[sp].d(T)[sp].[moe](A)p.[moe](G)p.[moe](T)[sp].[moe]([m5C])}$$$$ (last 3' nucleoside missing)” had a 3 h FOB score of 1 score 0-7.

Substance “RNA1{[moe](G)[sp].[moe](G)p.[moe](T)p.[moe]([m5C])p.[moe]([m5C])p.d(T)[sp].d(A)[sp].d(A)[sp].d(A)[sp].d(T)[sp].d(A)[sp].d(T)[sp].d(T)[sp].d([m5C])[sp].d(T)[sp].[moe](A)p.[moe](G)p.[moe](T)[sp].[moe]([m5C])}$$$$ (last 3' nucleoside missing)” yielded a 3 h FOB score of 1 score 0-7.

“RNA1{[moe](G)[sp].[moe](G)p.[moe]([m5C])p.[moe](A)p.[moe](A)[sp].d([m5C])[sp].d(A)[sp].d(G)[sp].d(T)[sp].d(T)[sp].d(T)[sp].d([m5C])[sp].d([m5C])[sp].d(A)[sp].d(T)[sp].[moe](A)p.[moe](A)p.[moe]([m5C])[sp].[moe](A)}$$$$ (last 3' nucleoside missing)” returned a 3 h FOB score of 0 score 0-7.

In turn, “RNA1{[moe](G)[sp].[moe](G)p.[moe]([m5C])p.[moe](A)p.[moe](G)[sp].d(T)[sp].d(A)[sp].d(T)[sp].d(T)[sp].d(A)[sp].d([m5C])[sp].d([m5C])[sp].d(T)[sp].[moe]([m5C])p.[moe](T)p.[moe](A)[sp].[moe]([m5C])}$$$$ (last 3' nucleoside missing)” showed a 3 h FOB score of 0 score 0-7.

“RNA1{[moe](G)[sp].[moe](G)p.[moe]([m5C])p.[moe](A)p.[moe](G)[sp].d(T)[sp].d(A)[sp].d(T)[sp].d(T)[sp].d(A)[sp].d([m5C])[sp].d([m5C])[sp].d(T)[sp].d([m5C])[sp].d(T)[sp].[moe](A)p.[moe]([m5C])p.[moe](T)[sp].[moe](A)}$$$$ (last 3' nucleoside missing)” gave a 3 h FOB score of 3 score 0-7.

Take “RNA1{[moe](G)[sp].[moe](G)p.[moe]([m5C])p.[moe](A)p.[moe](G)p.[moe](T)p.d(A)[sp].d(T)[sp].d(T)[sp].d(A)[sp].d([m5C])[sp].d([m5C])[sp].d(T)[sp].d([m5C])[sp].d(T)[sp].d(A)[sp].[moe]([m5C])p.[moe](T)[sp].[moe](A)}$$$$ (last 3' nucleoside missing)”: the 3 h FOB score came out at 3 score 0-7.

The substance “RNA1{[moe](G)[sp].[moe](G)p.[moe]([m5C])p.[moe](A)p.[moe](G)p.d(T)[sp].d(A)[sp].d(T)[sp].d(T)[sp].d(A)[sp].d([m5C])[sp].d([m5C])[sp].d(T)[sp].d([m5C])[sp].d(T)[sp].[moe](A)p.[moe]([m5C])p.[moe](T)[sp].[moe](A)}$$$$ (last 3' nucleoside missing)” yielded a 3 h FOB score of 3 score 0-7.

With “RNA1{[moe](G)[sp].[moe](G)p.[moe]([m5C])p.[moe](A)p.[moe]([m5C])[sp].d(A)[sp].d(G)[sp].d(T)[sp].d(T)[sp].d([m5C])[sp].d([m5C])[sp].d([m5C])[sp].d(A)[sp].d(G)[sp].d(A)[sp].[moe](T)p.[moe](A)p.[moe]([m5C])[sp].[moe](T)}$$$$ (last 3' nucleoside missing)”, the 3 h FOB score is 5 score 0-7.

In turn, “RNA1{[moe](G)[sp].[moe](G)p.[moe]([m5C])p.[moe](A)p.[moe]([m5C])p.[moe](A)p.d(G)[sp].d(T)[sp].d(T)[sp].d([m5C])[sp].d([m5C])[sp].d([m5C])[sp].d(A)[sp].d(G)[sp].d(A)[sp].d(T)[sp].[moe](A)p.[moe]([m5C])[sp].[moe](T)}$$$$ (last 3' nucleoside missing)” yielded a 3 h FOB score of 1 score 0-7.

With “RNA1{[moe](G)[sp].[moe](G)p.[moe]([m5C])p.[moe](A)p.d(G)[sp].d(T)[sp].d(A)[sp].d(T)[sp].d(T)[sp].d(A)[sp].d([m5C])[sp].d([m5C])[sp].d(T)[sp].d([m5C])[sp].[moe](T)p.[moe](A)p.[moe]([m5C])p.[moe](T)[sp].[moe](A)}$$$$ (last 3' nucleoside missing)”, the 3 h FOB score was 3 score 0-7.

Substance “RNA1{[moe](G)[sp].[moe](G)p.[moe]([m5C])p.[moe](A)p.d([m5C])[sp].d(A)[sp].d(G)[sp].d(T)[sp].d(T)[sp].d([m5C])[sp].d([m5C])[sp].d([m5C])[sp].d(A)[sp].d(G)[sp].[moe](A)p.[moe](T)p.[moe](A)p.[moe]([m5C])[sp].[moe](T)}$$$$ (last 3' nucleoside missing)” registered a 3 h FOB score of 1 score 0-7.

As to “RNA1{[moe](G)[sp].[moe](G)p.[moe]([m5C])p.[moe](G)p.[moe](A)[sp].d(G)[sp].d([m5C])[sp].d(G)[sp].d(G)[sp].d(A)[sp].d(G)[sp].d(G)[sp].d([m5C])[sp].d([m5C])[sp].d(T)[sp].[moe](G)p.[moe](G)p.[moe](G)[sp].[moe](T)}$$$$ (last 3' nucleoside missing)”, the 3 h FOB score was found to be 7 score 0-7.

“RNA1{[moe](G)[sp].[moe](G)p.[moe]([m5C])p.[moe](T)p.[moe](T)[sp].d(T)[sp].d(T)[sp].d(G)[sp].d(A)[sp].d(G)[sp].d(A)[sp].d(T)[sp].d(A)[sp].d(T)[sp].d([m5C])[sp].[moe](T)p.[moe](T)p.[moe](G)[sp].[moe](T)}$$$$ (last 3' nucleoside missing)” gave a 3 h FOB score of 5 score 0-7.

In the case of “RNA1{[moe](G)[sp].[moe](G)p.[moe]([m5C])p.[moe](T)p.[moe](T)[sp].d([m5C])[sp].d(A)[sp].d(T)[sp].d([m5C])[sp].d(T)[sp].d(G)[sp].d([m5C])[sp].d(T)[sp].d(T)[sp].d([m5C])[sp].[moe]([m5C])p.[moe](T)p.[moe](G)[sp].[moe](G)}$$$$ (last 3' nucleoside missing)”, the 3 h FOB score was found to be 1 score 0-7.

Substance “RNA1{[moe](G)[sp].[moe](G)p.[moe]([m5C])p.[moe](T)p.[moe]([m5C])[sp].d(T)[sp].d([m5C])[sp].d(T)[sp].d([m5C])[sp].d(A)[sp].d(T)[sp].d([m5C])[sp].d(T)[sp].d(G)[sp].d(T)[sp].[moe]([m5C])p.[moe](A)p.[moe](A)[sp].[moe](A)}$$$$ (last 3' nucleoside missing)” registered a 3 h FOB score of 4 score 0-7.

With “RNA1{[moe](G)[sp].[moe](G)p.[moe]([m5C])p.[moe]([m5C])p.[moe](T)[sp].d(A)[sp].d([m5C])[sp].d(T)[sp].d(T)[sp].d([m5C])[sp].d(T)[sp].d([m5C])[sp].d(T)[sp].d(A)[sp].d(G)[sp].[moe](G)p.[moe](T)p.[moe](G)[sp].[moe](G)}$$$$ (last 3' nucleoside missing)”, the 3 h FOB score is 1 score 0-7.

As to “RNA1{[moe](G)[sp].[moe](T)p.[moe](A)p.[moe](G)p.[moe](T)[sp].d(T)[sp].d(T)[sp].d([m5C])[sp].d([m5C])[sp].d(T)[sp].d(T)[sp].d(T)[sp].d(T)[sp].d(A)[sp].d([m5C])[sp].[moe]([m5C])p.[moe](A)p.[moe](A)[sp].[moe](G)}$$$$ (last 3' nucleoside missing)”, the 3 h FOB score turned out to be 1 score 0-7.

Substance “RNA1{[moe](G)[sp].[moe](T)p.[moe](A)p.[moe](T)p.[moe](T)[sp].d(A)[sp].d(G)[sp].d(G)[sp].d(A)[sp].d(T)[sp].d([m5C])[sp].d([m5C])[sp].d([m5C])[sp].[moe](A)p.[moe](T)p.[moe]([m5C])[sp].[moe](T)}$$$$ (last 3' nucleoside missing)” yielded a 3 h FOB score of 2 score 0-7.

For the substance “RNA1{[moe](G)[sp].[moe](T)p.[moe](A)p.[moe]([m5C])p.[moe]([m5C])[sp].d([m5C])[sp].d(T)[sp].d(G)[sp].d(G)[sp].d(T)[sp].d(A)[sp].d(T)[sp].d(G)[sp].d(A)[sp].d(T)[sp].[moe](A)p.[moe](G)p.[moe](G)[sp].[moe]([m5C])}$$$$ (last 3' nucleoside missing)”, the 3 h FOB score came to 6 score 0-7.

Regarding “RNA1{[moe](G)[sp].[moe](T)p.[moe](G)p.[moe](A)p.[moe](G)[sp].d(G)[sp].d([m5C])[sp].d(T)[sp].d(T)[sp].d(T)[sp].d(T)[sp].d(G)[sp].d(A)[sp].d(G)[sp].d(A)[sp].[moe](T)p.[moe](A)p.[moe](T)[sp].[moe]([m5C])}$$$$ (last 3' nucleoside missing)”, the 3 h FOB score was 5 score 0-7.

As for “RNA1{[moe](G)[sp].[moe](T)p.[moe](G)p.[moe](A)p.[moe](G)[sp].d(T)[sp].d(T)[sp].d(T)[sp].d([m5C])[sp].d(T)[sp].d(T)[sp].d(G)[sp].d(T)[sp].d(T)[sp].d(A)[sp].[moe](G)p.[moe](T)p.[moe](T)[sp].[moe](G)}$$$$ (last 3' nucleoside missing)”, the 3 h FOB score worked out at 7 score 0-7.

The substance “RNA1{[moe](G)[sp].[moe](T)p.[moe](G)p.[moe](A)p.[moe](T)[sp].d(T)[sp].d(T)[sp].d(T)[sp].d([m5C])[sp].d([m5C])[sp].d([m5C])[sp].d([m5C])[sp].d(G)[sp].[moe](T)p.[moe]([m5C])p.[moe](T)[sp].[moe](T)}$$$$ (last 3' nucleoside missing)” came in with a 3 h FOB score of 0 score 0-7.

As to “RNA1{[moe](G)[sp].[moe](T)p.[moe](G)p.[moe](A)p.[moe](T)[sp].d(T)[sp].d(T)[sp].d(T)[sp].d([m5C])[sp].d([m5C])[sp].d([m5C])[sp].d([m5C])[sp].d(G)[sp].d(T)[sp].d([m5C])[sp].[moe](T)p.[moe](T)p.[moe](T)[sp].[moe](G)}$$$$ (last 3' nucleoside missing)”, the 3 h FOB score came to 6 score 0-7.

“RNA1{[moe](G)[sp].[moe](T)p.[moe](G)p.[moe](A)p.[moe]([m5C])[sp].d(T)[sp].d(A)[sp].d(T)[sp].d([m5C])[sp].d(T)[sp].d(A)[sp].d(G)[sp].d(G)[sp].d(A)[sp].d(T)[sp].[moe](T)p.[moe](T)p.[moe](G)[sp].[moe](G)}$$$$ (last 3' nucleoside missing)” displayed a 3 h FOB score of 6 score 0-7.
